Assays:
[1] = system: cultured cerebral cortex cells; test: Effect on nitrogen monoxide (NO)-induced neurotoxicity of cultured cerebral cortex cell (trypan blue survival); assay type: cell-based; conditions: test substance 10 μM simultaneously with S-nitrosocysteine 100 μM; percentage of living cells; sham 91.92, S-nitrosocysteine alone 17.30
Experimental: Effect of Atisane Derivative on Nitrogen Monoxide (NO)-induced Neurotoxicity of Cultured Cerebral Cortex Cell
(1) After dissolving the compound according to the present invention (test compound) in a small amount of methanol, 2.0 mL serum-free normal medium (Eagle's MEM medium raw powder 9.4 g; NaHCO3 2.0 g; […]; glucose 1.0 g; and HEPES 2.38 g are dissolved in purified water so that the final volume is 1000 mL) was added to make the concentration at 10 μM. After mixing well by vortex, the sample was used for the following bioassay. (2) In Eagle liquid at 37° C., cultured cerebral cortex cells were incubated in the medium containing S-nitrosocysteine for 1 hour. At this time, the test sample (1) was treated simultaneously with S-nitrosocysteine. After incubating for another 1 hour, the culture was stained with 1.5% trypan blue solution for 10 minutes. After completion of the staining, cells were fixed in ice-cooled 10% neutral-buffered formalin solution, rinsed with saline, and numbers of living cells and dead cells were counted. The test was conducted using 5 cover slips for every drug treatment, and one group contained 5 cases. More than 200 cells were counted per one cover slip, and a percentage of number of living cells with respect to the total number of counted cells was calculated as survival. (3) Results

[2] = system: cultured cerebral cortex cells; test: Effect on glutamate-induced neurotoxicity of cultured cerebral cortex cell (trypan blue survival); assay type: cell-based; conditions: test substance 10 μM, 1 h pre-incubation, then glutamic acid 500 μM for 1 h; percentage of living (trypan blue unstained) cells; sham 88.79, glutamic acid alone 26.72
Experimental: Effect of Atisane Derivative on Glutamate-induced Neurotoxicity of Cultured Cerebral Cortex Cell
Effects of the compounds according to the present invention on survival of cells were studied in the following manners.
(1) After dissolving the compound according to the present invention (test compound) in a small amount of methanol, 2.0 mL serum-free normal medium (Eagle's MEM medium raw powder 9.4 g; NaHCO3 2.0 g; L-glutamine 0.29 g; glucose 1.0 g; and HEPES 2.38 g are dissolved in purified water so that the final volume is 1000 mL) was added so as to make the concentration at 10 μM. After mixing well by vortex, the sample was used for the following bioassay. (2) In Eagle liquid at 37° C., cultured cerebral cortex cells were incubated in the medium containing the test sample (1) for 1 hour, and glutamic acid was added to the medium. After incubating for another 1 hour, the culture was stained with 1.5% trypan blue solution for 10 minutes. […] Using this property, in the present test, the number of cells were counted while determining the cells not having stained by trypan blue as living cells and the cells […] as dead cells. […] More than 200 cells were counted per one cover slip, and a percentage of number of living cells with respect to the total number of counted cells was calculated as survival. […]

Question: Which results are given for `C[S+]([O-])C[C@H]1[C@H]2CC[C@@]3(CC[C@H]4[C@@](C)(CCC[C@@]4(C)C(=O)O)[C@@H]3C2)[C@@H]1O` (mixture of isomers) [Serofendic acid isomers (1), (2) (approx. 1:2) mixture, ent-15β-Hydroxy-17-methylsulfinyl-16α-atisane-19-oic acid]?
Answer: Survival of cell [1]: 76.02%; Survival of cell [2]: 65.92%

Reference: patent US7211589B2, “Atisane compounds and use thereof” (Eisai R&D Management Co., Ltd., priority 2001, dated 2007)
